Measured values from patent US6426369B1, “Oxethazaine as antimicrobial agent” (Eisai Co., Ltd., priority 1997, dated 2002).

Assays:
H. pylori [1] = assay: Antimicrobial activity test 3: oxethazaine in combination with compound (II), checker board method; format: cell-based; conditions: Helicobacter pylori
Description: In each Table, the concentration of oxethazaine is shown vertically, and the concentration of compound (II) is shown horizontally. In each Table, “−” indicates the inhibited growth of H. pylori (presence of antimicrobial activity), and “+” indicates the growth of H. pylori (absence of antimicrobial activity). […] It is assumed to be present when the MIC of either oxethazaine or PPI is reduced by ½ (when anti-H. pylori activity is not recognized when the concentrations of both oxethazaine and PPI are reduced to ¼, but anti-H. pylori activity is recognized when the concentration of one compound is reduced to ¼ and simultaneously the concentration of the other compound is reduced to ½.).

H. pylori [2] = assay: Antimicrobial activity test 6: oxethazaine in combination with an antibiotic (AMPC, CAM, RXM), checker board method; format: cell-based, Helicobacter pylori; set-up: key to growth of H. pylori: “−” indicates the inhibited growth of H. pylori (presence of antimicrobial activity); “+” indicates the growth of H. pylori (absence of antimicrobial activity)
Description: The effect of combined use with amoxicillin (AMPC), clarithromycin (CAM) or roxithromycin (RXM) was examined in the same manner as in antimicrobial activity test 1, using the checker board method.

## CN(C(=O)CN(CCO)CC(=O)N(C)C(C)(C)Cc1ccccc1)C(C)(C)Cc1ccccc1 [Oxethazaine, 2,2′-[(2-hydroxyethyl)amino]bis[N-(1,1-dimethyl-2-phenylethyl)-N-methylacetamide]]
H. pylori [1]; NCTC11637, NCTC 11637
  MIC: 25 µg/mL
H. pylori [1]; NCTC11639, NCTC 11639
  MIC: 50 µg/mL
H. pylori [2]; 89-355, oxethazaine 3.13 + CAM 0 μg/ml
  growth of H. pylori: +
H. pylori [2]; 89-355, oxethazaine 6.25 + CAM 0 μg/ml
  growth of H. pylori: +
H. pylori [2]; 89-355, oxethazaine 12.5 + CAM 0 μg/ml
  growth of H. pylori: −
H. pylori [2]; 89-355, oxethazaine 25 + CAM 0 μg/ml
  growth of H. pylori: −
H. pylori [2]; 89-355, oxethazaine 50 + CAM 0 μg/ml
  growth of H. pylori: −
H. pylori [2]; 89-355, oxethazaine 100 + CAM 0 μg/ml
  growth of H. pylori: −
H. pylori [2]; 89-357, oxethazaine 3.13 + CAM 0 μg/ml
  growth of H. pylori: +
H. pylori [2]; 89-357, oxethazaine 6.25 + CAM 0 μg/ml
  growth of H. pylori: +
H. pylori [2]; 89-357, oxethazaine 12.5 + CAM 0 μg/ml
  growth of H. pylori: +
H. pylori [2]; 89-357, oxethazaine 25 + CAM 0 μg/ml
  growth of H. pylori: −
H. pylori [2]; 89-357, oxethazaine 50 + CAM 0 μg/ml
  growth of H. pylori: −
H. pylori [2]; 89-357, oxethazaine 100 + CAM 0 μg/ml
  growth of H. pylori: −
H. pylori [2]; 90-388, oxethazaine 3.13 + CAM 0 μg/ml
  growth of H. pylori: +
H. pylori [2]; 90-388, oxethazaine 6.25 + CAM 0 μg/ml
  growth of H. pylori: +
H. pylori [2]; 90-388, oxethazaine 12.5 + CAM 0 μg/ml
  growth of H. pylori: +
H. pylori [2]; 90-388, oxethazaine 25 + CAM 0 μg/ml
  growth of H. pylori: −
H. pylori [2]; 90-388, oxethazaine 50 + CAM 0 μg/ml
  growth of H. pylori: −
H. pylori [2]; 90-388, oxethazaine 100 + CAM 0 μg/ml
  growth of H. pylori: −
H. pylori [2]; 90-390, oxethazaine 3.13 + CAM 0 μg/ml
  growth of H. pylori: +
H. pylori [2]; 90-390, oxethazaine 6.25 + CAM 0 μg/ml
  growth of H. pylori: +
H. pylori [2]; 90-390, oxethazaine 12.5 + CAM 0 μg/ml
  growth of H. pylori: +
H. pylori [2]; 90-390, oxethazaine 25 + CAM 0 μg/ml
  growth of H. pylori: −
H. pylori [2]; 90-390, oxethazaine 50 + CAM 0 μg/ml
  growth of H. pylori: −
H. pylori [2]; 90-390, oxethazaine 100 + CAM 0 μg/ml
  growth of H. pylori: −
H. pylori [2]; EH 12, oxethazaine 3.13 + CAM 0 μg/ml
  growth of H. pylori: +
H. pylori [2]; EH 12, oxethazaine 6.25 + CAM 0 μg/ml
  growth of H. pylori: +
H. pylori [2]; EH 12, oxethazaine 12.5 + CAM 0 μg/ml
  growth of H. pylori: −
H. pylori [2]; EH 12, oxethazaine 25 + CAM 0 μg/ml
  growth of H. pylori: −
H. pylori [2]; EH 12, oxethazaine 50 + CAM 0 μg/ml
  growth of H. pylori: −
H. pylori [2]; EH 12, oxethazaine 100 + CAM 0 μg/ml
  growth of H. pylori: −
H. pylori [2]; EH 13, oxethazaine 3.13 + CAM 0 μg/ml
  growth of H. pylori: +
H. pylori [2]; EH 13, oxethazaine 6.25 + CAM 0 μg/ml
  growth of H. pylori: +
H. pylori [2]; EH 13, oxethazaine 12.5 + CAM 0 μg/ml
  growth of H. pylori: +
H. pylori [2]; EH 13, oxethazaine 25 + CAM 0 μg/ml
  growth of H. pylori: −
H. pylori [2]; EH 13, oxethazaine 50 + CAM 0 μg/ml
  growth of H. pylori: −
H. pylori [2]; EH 13, oxethazaine 100 + CAM 0 μg/ml
  growth of H. pylori: −
H. pylori [2]; strain 90-388, oxethazaine 3.13 μg/ml, AMPC 0
  growth of H. pylori: +
H. pylori [2]; strain 90-388, oxethazaine 6.25 μg/ml, AMPC 0
  growth of H. pylori: +
H. pylori [2]; strain 90-388, oxethazaine 12.5 μg/ml, AMPC 0
  growth of H. pylori: +
H. pylori [2]; strain 90-388, oxethazaine 25 μg/ml, AMPC 0
  growth of H. pylori: −
H. pylori [2]; strain 90-388, oxethazaine 50 μg/ml, AMPC 0
  growth of H. pylori: −
H. pylori [2]; strain 90-388, oxethazaine 100 μg/ml, AMPC 0
  growth of H. pylori: −
H. pylori [2]; strain 90-390, oxethazaine 3.13 μg/ml, AMPC 0
  growth of H. pylori: +
H. pylori [2]; strain 90-390, oxethazaine 6.25 μg/ml, AMPC 0
  growth of H. pylori: +
H. pylori [2]; strain 90-390, oxethazaine 12.5 μg/ml, AMPC 0
  growth of H. pylori: +
H. pylori [2]; strain 90-390, oxethazaine 25 μg/ml, AMPC 0
  growth of H. pylori: −
H. pylori [2]; strain 90-390, oxethazaine 50 μg/ml, AMPC 0
  growth of H. pylori: −
H. pylori [2]; strain 90-390, oxethazaine 100 μg/ml, AMPC 0
  growth of H. pylori: −
H. pylori [2]; strain 90-397, CAM 0 μg/ml (oxethazaine alone), oxethazaine μg/ml by row r6-r11: 100, 50, 25, 12.5, 6.25, 3.13
  growth of H. pylori: +
H. pylori [2]; strain 90-397, CAM 0.006 μg/ml, oxethazaine μg/ml: 100, 50, 25, 12.5, 6.25, 3.13, 0
  growth of H. pylori: +
H. pylori [2]; strain 90-397, CAM 0.012 μg/ml, oxethazaine μg/ml: 100, 50, 25, 12.5, 6.25, 3.13, 0
  growth of H. pylori: +
H. pylori [2]; strain 90-397, CAM 0.024 μg/ml, oxethazaine μg/ml: 100, 50, 25, 12.5, 6.25, 3.13, 0
  growth of H. pylori: +
H. pylori [2]; strain 90-397, CAM 0.05 μg/ml, oxethazaine μg/ml: 100, 50, 25, 12.5, 6.25, 3.13, 0
  growth of H. pylori: +
H. pylori [2]; strain 90-397, CAM 0.1 μg/ml, oxethazaine μg/ml: 100, 50, 25, 12.5, 6.25, 3.13, 0
  growth of H. pylori: −
H. pylori [2]; strain 90-397, CAM 0.2 μg/ml, oxethazaine μg/ml: 100, 50, 25, 12.5, 6.25, 3.13, 0
  growth of H. pylori: −
H. pylori [2]; strain 90-397, CAM 0.4 μg/ml, oxethazaine μg/ml: 100, 50, 25, 12.5, 6.25, 3.13, 0
  growth of H. pylori: −
H. pylori [2]; strain 90-397, CAM 0.8 μg/ml, oxethazaine μg/ml: 100, 50, 25, 12.5, 6.25, 3.13, 0
  growth of H. pylori: −
H. pylori [2]; strain 90-397, CAM 1.56 μg/ml, oxethazaine μg/ml: 100, 50, 25, 12.5, 6.25, 3.13, 0
  growth of H. pylori: −
